Test results published in patent US9821173B2, “Anti-cancer agents and methods of use” (Case Western Reserve University, priority 2013, dated 2017).
“And” between values parts separate entries of the source, which are not always exact repeats. Equal entries are not always repeated.

Tests used:
HeLa cells [1] = details: for fold more sensitive to IR exposure than cells treated with IR alone: HeLa pre-treated 24 hour with compound 3 (4 μM) or compound 4 (7 μM)
Experimental: HeLa cells were plated at a density of 250,000-300,000 cells/mL. After 24 hr cells, the cells were irradiated in a dose dependent manner (0-4 Gy) using a ^137Cs gamma source. After treatment, the cells were trypsinized and plated at a density between 300-4000 cells in 60 mm dishes. Cells were allowed to grow colonies (1 colony≧50 cells) for 10-14 days, stained with 0.25% crystal violet, and manually counted to measure the number of colonies. Survival fractions were normalized against positive controls (colony formation with no radiation) and plotted as the log percent survival versus dose of radiation. Each experiment was performed an average of four (4) times with cells propagated on several different days.
In this case, we measured the effects of combining these (phosphine)gold(I) indoles with ionizing radiation (IR), a widely used therapy used to treat solid tumors. […] After this time frame, media containing the (phosphine)gold(I) indole was removed and replaced with fresh media. The cells were then irradiated in a dose-dependent fashion from 0 to 6 Gy. Cell viability was assessed using a clonogenic assay that measures colony formation and thus accurately defines the cytotoxic effects of IR exposure. […] The initial linear phase is particularly important as this reflects repair of non-lethal damage inflicted by clinically-relevant doses of IR (˜2 Gy).

CEM-C7 = assay: Cell proliferation / cytotoxicity assay; type: cell-based; details: cell viability, cell-titer blue, up to 48 hours
Experimental: (§1) HeLa, MCF-7, HCT-116, and CEM-C7 were obtained from the American Type Culture Collection (Manassas, Va., USA). All adherent cell lines were maintained in Dulbecco's modified Eagle's medium (Mediatech) with 100 U/ml penicillin (Invitrogen), 100 μg/ml streptomycin (Invitrogen), 0.25 μg/ml amphotericin B (Invitrogen), and 10% fetal bovine serum (USA Scientific) and incubated at 37° C. with 5% CO2. CEM cells were maintained in RPMI-1640 media supplemented with 100 U/ml penicillin, 100 μg/ml streptomycin, 0.25 μg/ml amphotericin B, and 10% fetal bovine serum and incubated at 37° C. with […].
(§2) Cells were plated at a density of 7,000-13,000/well in 200 μl of media overnight in a 96-well plate. Each (phosphine)gold(I)-indole was added to wells in a dose-dependent manner (0.01-100 μM). Cells were treated with compounds for variable time periods (8-48 hours). With adherent cell lines, medium was removed from the wells and then 100 μl of fresh medium was added into each well followed by the addition of 20 μl of cell titer-blue reagent (Promega). Cells were incubated with reagent for 1-4 hrs and the optical density of samples was read at 560 nm using a microplate reader. The background absorbance of dye with media was subtracted from each sample. Cell viability was then normalized against cells treated with DMSO. IC50 values were obtained using a fit of the data to Equation 1: Y=100%/[1+(IC50/Inhibitor)] (1)
(§3) where y is the fraction of viable cells, IC50 is the concentration of inhibitor that inhibits 50% cell growth, and Inhibitor is the concentration of compound tested.
(§4) The cellular effects of these (phosphine)gold(I) indoles were tested against several cancer cell lines including HeLa (cervical cancer), MCF-7 (breast cancer), HCT-116 (colon cancer), and CEM-C7 (leukemia). The dose-dependency of each modified indole on cell viability was assessed using a cell-titer blue assay as previously described. In these experiments, cells were exposed to variable concentrations of each (phosphine)gold(I) indole (0.01-100 μM) for up to 48 hours and then assessed for viability.
Defining this mechanism of cell death is important as necrosis can cause various side-effects including septic shock and kidney failure that can obviously compromise patient health.

γH2AX foci in HeLa cells = details: 2 Gy IR, compound 4 7 μM; for number of γH2AX foci 30 minutes post IR exposure: compound 3 4 μM
Experimental: HeLa cells were plated at a density of 40,000 cells/ml in 24-well glass bottom plate for 24 hr. After this time, cells were treated with Au(I)indole compounds at desired concentration for an additional 24 hr. The cells were irradiated at 2 Gys. Cells were fixed with 4% paraformaldehyde for 15 min at 37° C. at time points corresponding to 0.5, 1, 2, and 4 hrs. Cells were washed with 1×PBS and permeabilized in 0.2% Triton X-100 for 15 min at 37° C. […] Mouse monoclonal anti-phospho-histone H2AX antibody (Millipore) was applied (1:500 dilution) to each well for one hour. After washing several times with blocking buffer, a 1:500 dilution of goat anti-mouse secondary antibody conjugated with Alexa 647 (Invitrogen) was added for 1 hr. The wells were then washed several times, and the number of γH2AX foci per nuclei was measured using an iCyte laser scanning cytometer with a red long pass filter (650 nm). To collect accurate data, a threshold was set to minimize noise produced by unrelated events using iNovator software (version 3.4.2.52). Each well was scanned using a 40× magnification with 0.25 μm× step and a field size of 250×186 μm (1000×768 pixels). Data were plotted as the percentage of cells as a function of foci number. The resulting histogram was fit to the equation for a Gaussian distribution (Equation 2). Y=1/(2πσ^2)^1/2e^−[(χ−m)2/2σ2] (2)
where Y is the percentage of cells, μ is the mean, and σ is the variance used to define the width of the mean.

MCF-7 = assay: Cell proliferation assay (cell-titer blue); type: cell-based; details: cell viability, up to 48 hours
Experimental: as §1, §2, §3, §4

HeLa = assay: Cell proliferation assay (cell-titer blue); type: cell-based; details: cell viability, cell-titer blue, up to 48 hours
Experimental: as §1, §2, §3, §4

HCT-116 = assay: Cell proliferation assay (cell-titer blue); type: cell-based; details: cell viability, up to 48 hours, read-out: IC50 HCT116
Experimental: as §1, §2, §3, §4

HeLa cells [2] = assay: Cell cycle analyses (PI staining, flow cytometry); type: cell-based; details: for G1 (%) / G2/M (%) / S-Phase (%): 50 μM, 24 hours post-treatment
Experimental: Cells were plated at a density of 200,000/ml. Au(I)-Indole analogs were then added in a dose-dependent manner for time periods varying from 1 to 3 days. Cells were treated with 0.25% trypsin and harvested by centrifugation. The supernatant was removed and then washed with PBS. After aspiration of PBS, 500 μl of 70% ethanol was added and cells were incubated on ice for 15 minutes followed by centrifugation and the removal of ethanol. One ml of PI staining solution [(10 ml of 0.1 Triton X-100/PBS, 0.4 ml of 500 μg/ml of PI, and 2 mg/ml of DNase-free RNase)] was added to the cell suspension, placed on ice for 30 minutes, and then analyzed using a Beckman Coulter XL flow cytometer with a red filter.
We next analyzed the effects of compounds 3 and 4 on cell-cycle progression using PI staining to measure cellular DNA content. HeLa cells were treated with DMSO.

PRS6KA1 = target: T1, PRS6KA1 (Homo sapiens, UniProt Q15418); assay: Kinase inhibition screening (Luceome); type: biochemical; details: 10 μM
T1 construct: purchased Luceome Biotechnologies (Tucson, Ariz.)
Excerpt: (§5) It is well established that dysfunctional and unregulated kinase activity plays significant roles in cancer initiation and progression. […] Inspection of the data provides several interesting observations. […] These inhibitory effects at this concentration are consistent with their measured IC50 values that are also in the μM range (Table 1). In addition, several kinases display overlapping inhibitory responses to both gold(I) compounds. Many of these are of particular interest since they are involved in cancer initiation and/or progression. For example, the Aurora kinase family members, Aurora A and Aurora B, as well as the MARK2 and MARK3 kinases function during mitosis to regulate cell division. These kinases are important therapeutic targets as their activities are often deregulated in many types of cancers. Other kinases such as RPS6KA3 and MLK3 are involved in the MAP kinase and JNK pathways which are also important in cancer progression.

PAK1 = target: T2, PAK1 (Homo sapiens, UniProt Q13153); assay: Kinase inhibition screening (Luceome); type: biochemical; details: 10 μM
T2 construct: purchased Luceome Biotechnologies (Tucson, Ariz.)
Excerpt: as §5

AKT3 = target: T3, AKT3 (Homo sapiens, UniProt Q9Y243); assay: Kinase inhibition screening (Luceome); type: biochemical; details: 10 μM
T3 construct: purchased Luceome Biotechnologies (Tucson, Ariz.)
Excerpt: as §5

AMPK-α2 = target: T4, AMPK-α2 (Homo sapiens, UniProt P54646); assay: Kinase inhibition screening (Luceome); type: biochemical; details: 10 μM
T4 construct: purchased Luceome Biotechnologies (Tucson, Ariz.)
Excerpt: as §5

PKC-ε = target: T5, PKC-ε (Homo sapiens, UniProt Q02156); assay: Kinase inhibition screening (Luceome); type: biochemical; details: 10 μM
T5 construct: purchased Luceome Biotechnologies (Tucson, Ariz.)
Excerpt: as §5

CAMKD2B = target: T6, CAMKD2B (Homo sapiens, UniProt Q13554); assay: Kinase inhibition screening (Luceome); type: biochemical; details: 10 μM
T6 construct: purchased Luceome Biotechnologies (Tucson, Ariz.)
Excerpt: as §5

T2 sequence (Q13153 whole entry): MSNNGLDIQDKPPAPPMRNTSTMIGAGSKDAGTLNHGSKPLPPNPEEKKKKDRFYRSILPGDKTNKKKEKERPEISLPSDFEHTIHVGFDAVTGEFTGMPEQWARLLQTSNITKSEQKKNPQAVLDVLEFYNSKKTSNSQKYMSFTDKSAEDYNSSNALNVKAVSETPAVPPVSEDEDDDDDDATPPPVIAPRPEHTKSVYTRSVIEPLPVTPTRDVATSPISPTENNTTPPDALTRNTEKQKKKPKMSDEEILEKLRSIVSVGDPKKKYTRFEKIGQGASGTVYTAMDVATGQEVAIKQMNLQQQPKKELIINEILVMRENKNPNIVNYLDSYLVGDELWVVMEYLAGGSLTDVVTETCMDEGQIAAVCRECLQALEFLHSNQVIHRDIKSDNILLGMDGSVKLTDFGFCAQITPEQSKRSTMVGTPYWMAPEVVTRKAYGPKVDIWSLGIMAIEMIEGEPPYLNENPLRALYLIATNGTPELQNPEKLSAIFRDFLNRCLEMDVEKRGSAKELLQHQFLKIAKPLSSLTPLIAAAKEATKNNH
T3 sequence (Q9Y243 whole entry): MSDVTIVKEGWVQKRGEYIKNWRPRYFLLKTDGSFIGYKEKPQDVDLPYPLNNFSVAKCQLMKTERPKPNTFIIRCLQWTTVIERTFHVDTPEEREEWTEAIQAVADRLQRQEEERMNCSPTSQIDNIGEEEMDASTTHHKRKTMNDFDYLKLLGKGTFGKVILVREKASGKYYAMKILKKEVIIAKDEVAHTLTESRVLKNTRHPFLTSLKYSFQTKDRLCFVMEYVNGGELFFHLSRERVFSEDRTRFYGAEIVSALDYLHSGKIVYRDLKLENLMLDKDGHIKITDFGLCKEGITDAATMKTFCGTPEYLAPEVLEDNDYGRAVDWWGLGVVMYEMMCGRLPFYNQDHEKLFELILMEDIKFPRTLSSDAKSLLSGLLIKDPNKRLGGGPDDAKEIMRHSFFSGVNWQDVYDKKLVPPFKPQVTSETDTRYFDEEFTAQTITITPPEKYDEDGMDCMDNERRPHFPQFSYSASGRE
T5 sequence (Q02156 whole entry): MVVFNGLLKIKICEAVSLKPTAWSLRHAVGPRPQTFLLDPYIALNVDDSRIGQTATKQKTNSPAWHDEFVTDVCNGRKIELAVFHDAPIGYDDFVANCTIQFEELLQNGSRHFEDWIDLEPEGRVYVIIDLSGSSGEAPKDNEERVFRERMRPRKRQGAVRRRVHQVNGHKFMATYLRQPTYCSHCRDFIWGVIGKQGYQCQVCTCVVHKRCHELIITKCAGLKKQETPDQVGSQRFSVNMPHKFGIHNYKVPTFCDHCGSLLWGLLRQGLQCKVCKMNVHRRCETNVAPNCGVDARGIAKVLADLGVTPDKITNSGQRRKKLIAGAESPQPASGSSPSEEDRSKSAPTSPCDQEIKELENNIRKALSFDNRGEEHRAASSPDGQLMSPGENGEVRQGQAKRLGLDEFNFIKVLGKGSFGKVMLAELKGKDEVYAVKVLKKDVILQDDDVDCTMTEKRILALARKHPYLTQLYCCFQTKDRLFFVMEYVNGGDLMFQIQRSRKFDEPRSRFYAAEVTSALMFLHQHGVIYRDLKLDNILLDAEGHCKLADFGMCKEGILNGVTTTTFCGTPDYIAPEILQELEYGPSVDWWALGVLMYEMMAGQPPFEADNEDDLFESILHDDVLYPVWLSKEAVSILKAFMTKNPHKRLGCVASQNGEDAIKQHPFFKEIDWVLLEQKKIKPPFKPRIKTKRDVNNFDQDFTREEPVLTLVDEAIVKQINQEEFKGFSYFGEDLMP
T4 sequence (P54646 whole entry): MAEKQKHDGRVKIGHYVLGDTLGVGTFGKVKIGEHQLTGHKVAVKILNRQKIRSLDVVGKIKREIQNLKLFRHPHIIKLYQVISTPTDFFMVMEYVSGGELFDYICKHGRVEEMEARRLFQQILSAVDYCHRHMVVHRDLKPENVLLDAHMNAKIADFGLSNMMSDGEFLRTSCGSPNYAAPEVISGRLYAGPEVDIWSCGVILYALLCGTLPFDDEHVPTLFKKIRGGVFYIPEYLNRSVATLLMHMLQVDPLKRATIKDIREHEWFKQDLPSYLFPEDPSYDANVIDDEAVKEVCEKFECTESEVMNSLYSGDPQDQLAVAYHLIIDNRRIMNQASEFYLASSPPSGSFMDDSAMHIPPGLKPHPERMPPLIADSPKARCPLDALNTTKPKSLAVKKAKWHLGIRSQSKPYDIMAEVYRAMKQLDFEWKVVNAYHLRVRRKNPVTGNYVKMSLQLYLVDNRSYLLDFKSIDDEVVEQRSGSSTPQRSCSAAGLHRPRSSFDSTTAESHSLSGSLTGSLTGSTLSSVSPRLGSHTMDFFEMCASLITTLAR
T6 sequence (Q13554 whole entry): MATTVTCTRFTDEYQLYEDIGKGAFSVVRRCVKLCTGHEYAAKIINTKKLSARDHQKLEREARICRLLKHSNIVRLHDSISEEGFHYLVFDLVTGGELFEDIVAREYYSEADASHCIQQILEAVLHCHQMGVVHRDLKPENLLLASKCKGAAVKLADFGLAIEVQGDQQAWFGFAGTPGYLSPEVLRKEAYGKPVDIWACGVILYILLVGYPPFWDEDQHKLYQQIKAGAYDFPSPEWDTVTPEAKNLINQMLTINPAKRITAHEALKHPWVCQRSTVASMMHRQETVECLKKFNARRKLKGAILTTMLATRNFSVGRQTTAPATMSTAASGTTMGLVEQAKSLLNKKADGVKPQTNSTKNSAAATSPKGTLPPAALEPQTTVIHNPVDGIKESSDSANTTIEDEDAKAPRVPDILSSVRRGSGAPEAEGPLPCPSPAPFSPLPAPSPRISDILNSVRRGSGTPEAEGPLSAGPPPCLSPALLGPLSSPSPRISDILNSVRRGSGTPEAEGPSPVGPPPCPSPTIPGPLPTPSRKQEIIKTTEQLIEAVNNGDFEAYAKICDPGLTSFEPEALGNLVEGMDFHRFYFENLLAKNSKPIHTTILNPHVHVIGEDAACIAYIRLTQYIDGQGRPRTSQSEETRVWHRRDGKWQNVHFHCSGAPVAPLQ
T1 sequence (Q15418 whole entry): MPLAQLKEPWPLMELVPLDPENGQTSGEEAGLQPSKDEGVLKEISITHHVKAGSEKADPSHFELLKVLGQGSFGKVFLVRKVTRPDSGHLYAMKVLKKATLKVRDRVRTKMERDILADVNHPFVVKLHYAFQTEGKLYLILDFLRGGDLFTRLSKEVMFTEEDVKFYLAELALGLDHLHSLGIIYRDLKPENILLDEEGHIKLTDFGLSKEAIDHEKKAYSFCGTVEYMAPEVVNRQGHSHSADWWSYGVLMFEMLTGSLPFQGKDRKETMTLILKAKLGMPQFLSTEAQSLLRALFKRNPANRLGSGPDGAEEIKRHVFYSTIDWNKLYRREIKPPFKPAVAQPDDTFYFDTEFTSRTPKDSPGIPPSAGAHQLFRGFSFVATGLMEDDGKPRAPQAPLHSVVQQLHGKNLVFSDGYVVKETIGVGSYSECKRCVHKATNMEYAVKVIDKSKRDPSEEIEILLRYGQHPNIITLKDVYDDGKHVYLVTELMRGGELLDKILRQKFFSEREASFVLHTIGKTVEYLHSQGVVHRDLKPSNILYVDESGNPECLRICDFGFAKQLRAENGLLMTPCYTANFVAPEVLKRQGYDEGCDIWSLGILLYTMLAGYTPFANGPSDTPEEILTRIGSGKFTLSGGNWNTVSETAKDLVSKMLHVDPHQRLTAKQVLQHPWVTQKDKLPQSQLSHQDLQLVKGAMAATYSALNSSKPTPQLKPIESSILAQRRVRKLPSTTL

Question: What does the source list for `CC(C)(C)OC(=O)n1ccc2c[c]([Au-][P+](c3ccccc3)(c3ccccc3)c3ccccc3)ccc21` [Compound 3, 5-{Triphenylphosphine aurate(I)}-tert-butyl1H-indole-1-carboxylate]?
Answer: fold more sensitive to IR exposure than cells treated with IR alone (HeLa cells [1]): ~4 fold; dose-modifying factor (HeLa cells [1]; ionizing radiation, HeLa): 4; IC50 (CEM-C7): 19.9 µM; number of γH2AX foci 30 minutes post IR exposure (γH2AX foci in HeLa cells): lower numbers of γH2AX foci; IC50 (MCF-7): 16.2 µM; IC50 (HeLa): 2.5 µM; IC50 (HCT-116): 11.5 µM; G1 (%) (HeLa cells [2]): 45.4 +/− 2.1%; G2/M (%) (HeLa cells [2]): 13.0 +/− 2.1%; S-Phase (%) (HeLa cells [2]): 41.6 +/− 0.1%; alterations in cell-cycle progression (HeLa cells [2]; over a 24 hour period): does not cause any significant alterations in cell-cycle progression; % Inhibition PRS6KA1 (PRS6KA1): 0%; % Inhibition PAK1 (PAK1): 0%; % Inhibition AKT3 (AKT3): 0%; % Inhibition AMPK-α2 (AMPK-α2): 0%; % Inhibition PKC-ε (PKC-ε): 0%; % Inhibition CAMKD2B (CAMKD2B): 0%

Question: Which “fold more sensitive to IR exposure than cells treated with IR alone” value (HeLa cells [1]) does the source give for `CC(C)(C)OC(=O)n1ccc2c[c]([Au-][P+](C3CCCCC3)(C3CCCCC3)C3CCCCC3)ccc21` [Compound 4, 5-{Tricyclohexylphosphine aurate(I)}-tert-butyl1H-indole-1-carboxylate] here?
Answer: Its value is about 4 fold.

Question: And the IC50 (CEM-C7)?
Answer: The IC50 was 9.7 µM.

Question: What about the “number of γH2AX foci 30 minutes post IR exposure” value (γH2AX foci in HeLa cells) of the same compound?
Answer: Its value is “increase in the number of γH2AX foci”.

Question: What about the “γH2AX foci 4 hours after IR exposure” value (γH2AX foci in HeLa cells) of the same compound?
Answer: Its value is “a significant number of γH2AX foci persist”.

Question: And the IC50 (MCF-7)?
Answer: The IC50 was 34.4 µM.

Question: And the IC50 (HeLa)?
Answer: The IC50 was 16.2 µM.

Question: What about the IC50 (HCT-116) of the same compound?
Answer: Its IC50 is 22.8 µM.

Question: And the “G1 (%)” value (HeLa cells [2])?
Answer: The value was 60.3+/−3.2% and 60.3 +/− 0.8%.

Question: And the “G2/M (%)” value (HeLa cells [2])?
Answer: The value was 11.4 +/− 4.9%.

Question: What about the “S-Phase (%)” value (HeLa cells [2]) of the same compound?
Answer: Its value is 28.3 +/− 1.3%.

Question: What about the “% Inhibition PRS6KA1” value (PRS6KA1) of the same compound?
Answer: Its value is 0%.

Question: What about the “% Inhibition PAK1” value (PAK1) of the same compound?
Answer: Its value is 0%.

Question: And the “% Inhibition AKT3” value (AKT3)?
Answer: The value was 0%.

Question: And the “% Inhibition AMPK-α2” value (AMPK-α2)?
Answer: The value was 0%.

Question: What about the “% Inhibition PKC-ε” value (PKC-ε) of the same compound?
Answer: The value was 5.9%.

Question: And the “% Inhibition CAMKD2B” value (CAMKD2B)?
Answer: The value was 0%.
